These are literature values, as cited in patent US20100087454A1, “MUCOSAL BIOADHESIVE SLOW RELEASE CARRIER FOR DELIVERING ACTIVE PRINCIPLES” (priority 2007, published 2010).

For this series the following is noted: after systemic administration orally; relative to 50% inhibitory dose of herpes simplex-1 virus.

For the compound `Nc1nc2c(ncn2COCCO)c(=O)[nH]1` [acyclovir], the “peak acyclovir concentrations in saliva” value is listed as “at the lower end of the 50% inhibitory dose of herpes simplex-1 virus”.
